Common to all, as to assay type: in vivo, cynomolgus monkeys
Data set [1] relates to platelet aggregation induced by collagen (3 μg/mL). Kind of data set: Ex vivo whole blood platelet aggregation induced by collagen. As to the method:
(§1) Animals instrumented to produce CFRs were administered SCH 602539, cangrelor, or a combination of SCH 602539 and cangrelor. The dosing regimens of SCH 602539 were selected to provide a broad range of inhibition of platelet aggregation induced by 1 μM thrombin receptor agonist peptide (TRAP), whereas the doses of cangrelor were selected to achieve 50%-60% inhibition of platelet aggregation induced by 10 μM ADP (the degree of inhibition obtained with clopidogrel). Group 1 received drug vehicle only (20% hydroxypropyl betacyclodextran or saline, 2 mL i.v.). Group 2 received SCH 602539 dissolved in 20% hydroxypropyl betacyclodextran administered as sequential i.v. boluses of 0.1, 0.3, or 1 mg/kg, at 30-minute intervals. Group 3 received cangrelor dissolved in saline and administered as an intravenous infusion of 0.1, 0.2, or 0.3 μg/kg/min for 30 minutes each. Group 4 received a combination of SCH 602539 bolus plus cangrelor infusion (at respective doses of: 1) 0.05 mg/kg+0.05 μg/kg/min; 2) 0.1 mg/kg+0.1 μg/kg/min; and 3) 0.15 mg/kg+0.1 μg/kg/min. The three dose regimens within each group were administered sequentially over the consecutive 30-minute periods coinciding with the re-induction of endothelial injury. Study drug or vehicle was administered after stable CFRs were achieved, and upon the completion of a 30-minute baseline CFR collection period, drug(s) or vehicle were administered incrementally (every 30 minutes) either as a bolus (SCH 602539) or as an infusion (cangrelor), and their effects on CFRs were monitored in the next three 30-minute observation periods. Blood samples (3 mL) were collected from the femoral arterial catheter at the end of each 30-minute observation period for assessment of ex vivo platelet aggregation and coagulation parameters.
(§2) Platelet aggregation studies were performed ex viva on blood samples obtained from the monkeys subjected to the Folts model, using a ChronoLog whole blood aggregometer (Model 540VS, Havertown, Pa.). Briefly, 0.5 mL of blood was incubated with 0.5 mL of normal saline at 37° C. in a cuvette containing a stir bar for 2 minutes. Platelet agonists used in this study included TRAP (3 μM), ADP (10 μM), the thromboxane A2 mimetic U46619 (10 μM), and collagen (3 μg/mL). Platelet aggregation was monitored for 5 minutes following the addition of the agonist. The peak aggregation response was recorded in ohms. In addition, standard coagulation parameters, including prothrombin time (PT), activated partial thromboplastin time (APTT), and activated clotting time (ACT), were assessed.

For data set [2], the system named is platelet aggregation induced by TRAP (3 μM). Nature of the data set: Ex vivo whole blood platelet aggregation induced by TRAP. Here is the method: as §1, §2
The nature of data set [3]: Prothrombin time (PT) in plasma, Folts model animals. As to conditions: for PT: i.v.; for effect on PT: tested doses. As to the method:
as §1, §2
(§3) PT and APTT assays were performed with plasma, while the ACT assay was performed with whole blood. Data are presented as mean±SEM (n=5-6/group).

The nature of data set [4]: Activated partial thromboplastin time (APTT) in plasma, Folts model animals. As to conditions: for APTT: i.v.; for effect on APTT: tested doses. As to the method: as §1, §2, §3
[5] abbreviates: cangrelor 0.2 and 0.3 μg/kg/min.

Turning to `CSCCNc1nc(SCCC(F)(F)F)nc2c1ncn2[C@@H]1O[C@H](COP(=O)(O)OP(=O)(O)C(Cl)(Cl)P(=O)(O)O)[C@@H](O)[C@H]1O` [Cangrelor], the “Aggregation, Collagen” value in data set [1] (Cangrelor 0.1 μg/kg/min, baseline 24 ± 3) worked out at 20 ± 3 ohms; in data set [1] (Cangrelor 0.2 μg/kg/min, baseline 24 ± 3), 20 ± 4 ohms; in data set [1] (Cangrelor 0.3 μg/kg/min, baseline 24 ± 3), 20 ± 3 ohms. The “effect on aggregation stimulated by 3 μg/mL collagen” value in data set [1] (setting [5]) is reported as “did not interfere”. Besides, the “inhibition of aggregation induced by collagen (discussion)” value in data set [1] (cangrelor, tested doses) was “modest numeric inhibition”. Also, the “Aggregation, TRAP” value in data set [2] (Cangrelor 0.1 μg/kg/min, baseline 13 ± 3) turned out to be 12 ± 3 ohms; in data set [2] (Cangrelor 0.2 μg/kg/min, baseline 13 ± 3) it was 12 ± 3 ohms; in data set [2] (Cangrelor 0.3 μg/kg/min, baseline 13 ± 3) it was 9 ± 3 ohms. In addition, the “effect on aggregation stimulated by 3 μM TRAP” value in data set [2] (setting [5]) was “did not interfere”. Further, the PT was 10.4 ± 0.3 s in data set [3] (Cangrelor 0.1 μg/kg/min × 30 min, plasma, mean±SEM, baseline 10.6 ± 0.4); 10.8 ± 0.6 s in data set [3] (Cangrelor 0.2 μg/kg/min × 30 min, baseline 10.6 ± 0.4); 10.7 ± 0.6 s in data set [3] (Cangrelor 0.3 μg/kg/min × 30 min, baseline 10.6 ± 0.4). For the same compound, the “effect on PT” value in data set [3] was “no effect”. Also, the APTT in data set [4] (Cangrelor 0.1 μg/kg/min × 30 min, plasma, baseline 22.5 ± 1.6) stood at 23.6 ± 2.6 s; in data set [4] (Cangrelor 0.2 μg/kg/min × 30 min, baseline 22.5 ± 1.6), 22.1 ± 1.3 s; in data set [4] (Cangrelor 0.3 μg/kg/min × 30 min, baseline 22.5 ± 1.6), 22.2 ± 2.0 s. Besides, the “effect on APTT” value in data set [4] is reported as “no effect”.
As to `CCOC(=O)N[C@@H]1CC[C@@H]2[C@@H](C1)C[C@H]1C(=O)O[C@H](C)[C@H]1[C@H]2/C=C/c1ccc(-c2ccccn2)cn1` [SCH 602539], the “Aggregation, Collagen” value in data set [1] (SCH 602539 0.1 mg/kg, baseline 27 ± 4) is given as 26 ± 2 ohms; in data set [1] (SCH 602539 0.3 mg/kg, baseline 27 ± 4), 24 ± 3 ohms; in data set [1] (SCH 602539 1.0 mg/kg, baseline 27 ± 4) it was 29 ± 5 ohms. In addition, in data set [1] (SCH 602539 0.3 mg/kg and 1 mg/kg), the “effect on aggregation induced by 3 μg/mL collagen” value was “did not affect”. For the same compound, the “Aggregation, TRAP” value in data set [2] (SCH 602539 0.1 mg/kg, baseline 14 ± 3) is 9 ± 4 ohms; in data set [2] (SCH 602539 0.3 mg/kg, baseline 14 ± 3), 2 ± 2 ohms. Further, in data set [2] (two highest doses of SCH 602539 (0.3 mg/kg and 1 mg/kg)), the “inhibition of ex vivo platelet aggregation induced by 3 μM TRAP” value was above 80%. The PT in data set [3] (SCH 602539 0.1 mg/kg, bolus, plasma, baseline 11.6 ± 0.4) worked out at 11.5 ± 0.2 s; in data set [3] (SCH 602539 0.3 mg/kg, bolus, baseline 11.6 ± 0.4) it was 11.8 ± 0.4 s; in data set [3] (SCH 602539 1.0 mg/kg, bolus, baseline 11.6 ± 0.4), 12.8 ± 1.1 s. Moreover, in data set [3], the “effect on PT” value is listed as “no effect”. Moreover, the APTT in data set [4] (SCH 602539 0.1 mg/kg, bolus, plasma, baseline 22.8 ± 1.7) was 22.4 ± 1.5 s; in data set [4] (SCH 602539 0.3 mg/kg, bolus, baseline 22.8 ± 1.7), 23.4 ± 2.2 s; in data set [4] (SCH 602539 1.0 mg/kg, bolus, baseline 22.8 ± 1.7), 25.4 ± 4.9 s. Moreover, the “effect on APTT” value in data set [4] is recorded as “no effect”.
